Laboratory results taken from patent US11534457B2, “Use of dextran sulfate” (priority 2017, dated 2022).

Tested on: Human umbilical vein endothelial cells (HUVECs)
Test: Gene expression array and pathway analysis, HUVECs
Format: cell-based
Protocol: For each cell line, n=8×25 cm^2 culture flasks were set up. Two flasks were harvested for each cell type on the day of treatment (24 hours after seeding). This represents the Day0 time point. From the remaining flasks, three flasks were treated with Control Medium and three were treated with Culture Medium (CM) containing LMW-DS to give a final concentration of 0.01 mg/ml. Cells from the treated flasks were collected after 48 hours. Therefore the collected data represent (a) untreated cells (Day0 Controls and Day2 Controls) and (b) cells treated with LMW-DS for 48 hours (Day2 LMW-DS treated).
25 cm^2 flasks were coated by adding 2 ml per flask of a solution of 50 μg/ml poly-d-lysine in Hank's balanced salt solution (HBSS) and incubating overnight at 37° C. in the dark. Flasks were washed with cell culture water and air-dried for 30 min in the dark. Flasks were coated by adding 1 ml per flask of a solution of 25 μg/ml laminin in phosphate-buffered saline (PBS) and incubating for 2 hour at 37° C. in the dark. The laminin flasks were washed with PBS three times before plating cells.
Medium 200+Large Vessel Endothelial Supplement (M200+LVES) additive (1:50) was prepared and pre-warmed to 37° C. Cells were thawed in a 37° C. water bath for no longer than 2 min and gently transferred into a 50 ml tube containing 20 ml Dulbecco's Modified Eagle Medium, Nutrient Mixture F-12 (DMEM-F12). The cell suspension was mixed by inverting the tube carefully twice. Cells were spun at 400×g for 10 minutes. Supernatant removed and cells were resuspended in 10 ml of culture media (M200+LVES additive).
Cells were counted with the Cellometer. 1,000,000 cells/flask were seeded in 25 cm^2 flasks (n=8) and medium was topped up to a total of 5 ml per flask. Cells were incubated at 37° C. with 5% CO2. Cells were allowed to settle for 24 hours before LMW-DS treatment.
LMW-DS was provided at a stock concentration of 20 mg/ml and was kept in a temperature monitored refrigerator at 4° C. A fresh […]LMW-DS stock (1.0 mg/ml) was prepared in sterile DMEM-F12. The concentrated drug stock was sterile filtered and added to the respective culture media (19.6 ml CM and 0.4 ml LMW-DS stock solution). The Control was made using 19.6 ml CM and 0.4 ml of DMEM-F12. LMW-DS and CM were added to the respective flasks (5 ml each) to reach the 0.01 mg/ml concentration of LMW-DS in each dish with a total of 10 ml CM each.
CM was aspirated into a clean and labelled 15 ml Falcon tube. The flasks (without culture medium) were placed into the −80° C. freezer for 30 minutes. The CM in the Falcon tubes were spun at 3000×g for 5 minutes. Supernatant was removed and the small pellet was re-suspended in 2.5 ml Trizol:Water (4:1) solution at room temperature (RT, […]).
Two aliquots of 1 ml lysate was removed from each sample and 200 μl of chloroform was added to each (0.2 ml of chloroform per 1 ml of TRIzol Reagent used during the cell lysis step) and the tube was shaken vigorously. Samples were stored at RT for 2-3 minutes and subsequently centrifuged at 12,000×g for 15 minutes at 4° C.
The expression data were downloaded into separate files for each cell line. The ‘Background corrected’ expression is the data from the “gProcessedSignal” of the arrays that is the result of the background signal extracted from the actual signal of the relevant probe. This is the most often used variable in array analysis. The background corrected signal was log 2 transformed for all samples for statistical analysis. To reduce the false discovery rate in the samples, the signals that were below ‘expression level’ were removed. The ‘below expression’ level was set at 5 for the log 2 transformed expression values.
Based on the expression pattern of the Control probes on each array it was decided to carry out Median Centering for all arrays before analysis to reduce the variability of the results. […]

Substance: low molecular weight dextran sulfate [LMW-DS]
- aggregate effect on adhesion and angiogenesis (1 molecule, ADAM11) (0.01 mg/ml, 48 h): adhesion would not be affected but angiogenesis would be activated
- differential regulation of the 197 genes regulating cell attachment (0.01 mg/ml, 48 h): none are differentially regulated
- modulation of the effects of oxidative stress on mitochondria (0.01 mg/ml, 48 h): no significant modulation
- number of genes differentially expressed, D0 control vs D2 LMW-DS treated (0.01 mg/ml, 48 h): 1779 genes
- number of genes differentially expressed, D2 control vs D2 LMW-DS treated (0.01 mg/ml, 48 h): 76 genes
- number of genes: abolished nutrient effect / no effect (0.01 mg/ml, 48 h): 67
- number of genes: abolished nutrient effect / significant downregulation (0.01 mg/ml, 48 h): 4
- number of genes: abolished nutrient effect / significant upregulation (0.01 mg/ml, 48 h): 11
- number of genes: abolished nutrient effect / total (0.01 mg/ml, 48 h): 82
- number of genes: enhanced response to nutrients / significant downregulation (0.01 mg/ml, 48 h): 120
- number of genes: enhanced response to nutrients / significant upregulation (0.01 mg/ml, 48 h): 229
- number of genes: enhanced response to nutrients / total (0.01 mg/ml, 48 h): 349
- number of genes: not different from control / significant downregulation (0.01 mg/ml, 48 h): 167
- number of genes: not different from control / significant upregulation (0.01 mg/ml, 48 h): 1326
- number of genes: not different from control / total (0.01 mg/ml, 48 h): 1493
- number of genes: total / no effect (0.01 mg/ml, 48 h): 67
- number of genes: total / significant downregulation (0.01 mg/ml, 48 h): 291
- number of genes: total / significant upregulation (0.01 mg/ml, 48 h): 1566
- number of genes: total / total (0.01 mg/ml, 48 h): 1924
- upstream regulator HGF: activation z-score (D2 LMW-DS treatment): 3.194
- upstream regulator HGF: predicted activation state relative D2 control (D2 LMW-DS treatment): Activated relative to control
- upstream regulator TGFβ1: activation z-score (D2 LMW-DS treatment): 1.429
- upstream regulator TGFβ1: predicted activation state relative D2 control (D2 LMW-DS treatment): Activated relative to control
- upstream regulator VEGF: activation z-score (D2 LMW-DS treatment): 3.432
- upstream regulator VEGF: predicted activation state relative D2 control (D2 LMW-DS treatment): Activated relative to control
